Measured values: doi:10.1101/2025.01.28.635346v1 (bioRxiv, 2025)
Bridge positions count the residues as written; N and C are the ends. Side chains are listed from the residue outwards. Peptide text beside a SMILES is read from it. * marks the point of attachment. Butanoyl(4-(4-I-phenyl)) = O=C(CCCc1ccc(I)cc1)*; PEG2 = NCCOCCOCCC(=O)O

How the values were obtained:
AR = target: T1, AR (Homo sapiens, UniProt P10275); test: Safetyscan47 NHR Nuclear Translocation, Agonist; format: cell-based; settings: for Emax: read-out: Max Response
T1 sequence (P10275 1-920): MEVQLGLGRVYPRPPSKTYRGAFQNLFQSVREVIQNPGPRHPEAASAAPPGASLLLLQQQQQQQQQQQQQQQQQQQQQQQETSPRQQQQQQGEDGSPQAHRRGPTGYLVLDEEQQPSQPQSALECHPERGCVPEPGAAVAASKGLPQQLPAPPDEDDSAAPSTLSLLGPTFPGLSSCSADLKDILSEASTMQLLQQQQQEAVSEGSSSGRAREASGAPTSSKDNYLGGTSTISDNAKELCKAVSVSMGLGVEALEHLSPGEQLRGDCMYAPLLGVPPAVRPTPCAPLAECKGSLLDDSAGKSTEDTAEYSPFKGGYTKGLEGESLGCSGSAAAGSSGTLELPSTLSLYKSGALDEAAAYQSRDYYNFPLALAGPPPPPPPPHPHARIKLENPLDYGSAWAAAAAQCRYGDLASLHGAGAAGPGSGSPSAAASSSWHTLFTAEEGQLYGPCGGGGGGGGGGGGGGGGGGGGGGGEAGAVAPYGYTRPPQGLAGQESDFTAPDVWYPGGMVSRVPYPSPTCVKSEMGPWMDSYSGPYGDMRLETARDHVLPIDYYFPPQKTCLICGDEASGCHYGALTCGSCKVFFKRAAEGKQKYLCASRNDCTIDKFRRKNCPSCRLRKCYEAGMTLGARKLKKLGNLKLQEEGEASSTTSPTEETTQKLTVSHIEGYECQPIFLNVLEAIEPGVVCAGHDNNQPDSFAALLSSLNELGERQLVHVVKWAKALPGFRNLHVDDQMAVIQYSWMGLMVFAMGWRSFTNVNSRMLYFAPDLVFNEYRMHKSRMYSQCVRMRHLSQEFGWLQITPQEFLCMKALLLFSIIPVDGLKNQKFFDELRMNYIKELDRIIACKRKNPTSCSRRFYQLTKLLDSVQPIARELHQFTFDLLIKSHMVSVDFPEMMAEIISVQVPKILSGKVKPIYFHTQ

[1] = Hepatocyte stability, cryopreserved mouse hepatocytes; format: in vitro ADME
CHRM3 = CHRM3 (Homo sapiens, UniProt P20309); test: Safetyscan47 GPCR Calcium Flux, Antagonist; format: cell-based; settings: for Emax: read-out: Max Response
Sequence of CHRM3 (P20309 whole entry): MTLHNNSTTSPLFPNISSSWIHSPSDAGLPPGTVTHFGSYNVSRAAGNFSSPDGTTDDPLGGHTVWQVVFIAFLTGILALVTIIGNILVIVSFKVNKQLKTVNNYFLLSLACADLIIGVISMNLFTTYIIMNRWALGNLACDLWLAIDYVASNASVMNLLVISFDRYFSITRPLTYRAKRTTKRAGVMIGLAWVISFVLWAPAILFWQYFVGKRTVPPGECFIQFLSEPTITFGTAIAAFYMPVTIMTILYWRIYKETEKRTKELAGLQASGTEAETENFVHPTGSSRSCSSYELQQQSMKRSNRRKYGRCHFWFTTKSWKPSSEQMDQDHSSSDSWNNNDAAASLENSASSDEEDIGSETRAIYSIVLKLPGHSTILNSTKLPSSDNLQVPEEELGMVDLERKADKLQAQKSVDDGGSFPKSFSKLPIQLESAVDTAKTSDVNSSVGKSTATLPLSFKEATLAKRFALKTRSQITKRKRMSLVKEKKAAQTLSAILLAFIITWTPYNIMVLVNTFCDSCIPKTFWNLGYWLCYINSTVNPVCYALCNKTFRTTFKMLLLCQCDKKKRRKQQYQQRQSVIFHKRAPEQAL

INSR = INSR (Homo sapiens, UniProt P06213); test: Safetyscan47 Kinases Binding, Inhibitor; settings: for Emax: read-out: Max Response
Sequence of INSR (P06213 28-1382): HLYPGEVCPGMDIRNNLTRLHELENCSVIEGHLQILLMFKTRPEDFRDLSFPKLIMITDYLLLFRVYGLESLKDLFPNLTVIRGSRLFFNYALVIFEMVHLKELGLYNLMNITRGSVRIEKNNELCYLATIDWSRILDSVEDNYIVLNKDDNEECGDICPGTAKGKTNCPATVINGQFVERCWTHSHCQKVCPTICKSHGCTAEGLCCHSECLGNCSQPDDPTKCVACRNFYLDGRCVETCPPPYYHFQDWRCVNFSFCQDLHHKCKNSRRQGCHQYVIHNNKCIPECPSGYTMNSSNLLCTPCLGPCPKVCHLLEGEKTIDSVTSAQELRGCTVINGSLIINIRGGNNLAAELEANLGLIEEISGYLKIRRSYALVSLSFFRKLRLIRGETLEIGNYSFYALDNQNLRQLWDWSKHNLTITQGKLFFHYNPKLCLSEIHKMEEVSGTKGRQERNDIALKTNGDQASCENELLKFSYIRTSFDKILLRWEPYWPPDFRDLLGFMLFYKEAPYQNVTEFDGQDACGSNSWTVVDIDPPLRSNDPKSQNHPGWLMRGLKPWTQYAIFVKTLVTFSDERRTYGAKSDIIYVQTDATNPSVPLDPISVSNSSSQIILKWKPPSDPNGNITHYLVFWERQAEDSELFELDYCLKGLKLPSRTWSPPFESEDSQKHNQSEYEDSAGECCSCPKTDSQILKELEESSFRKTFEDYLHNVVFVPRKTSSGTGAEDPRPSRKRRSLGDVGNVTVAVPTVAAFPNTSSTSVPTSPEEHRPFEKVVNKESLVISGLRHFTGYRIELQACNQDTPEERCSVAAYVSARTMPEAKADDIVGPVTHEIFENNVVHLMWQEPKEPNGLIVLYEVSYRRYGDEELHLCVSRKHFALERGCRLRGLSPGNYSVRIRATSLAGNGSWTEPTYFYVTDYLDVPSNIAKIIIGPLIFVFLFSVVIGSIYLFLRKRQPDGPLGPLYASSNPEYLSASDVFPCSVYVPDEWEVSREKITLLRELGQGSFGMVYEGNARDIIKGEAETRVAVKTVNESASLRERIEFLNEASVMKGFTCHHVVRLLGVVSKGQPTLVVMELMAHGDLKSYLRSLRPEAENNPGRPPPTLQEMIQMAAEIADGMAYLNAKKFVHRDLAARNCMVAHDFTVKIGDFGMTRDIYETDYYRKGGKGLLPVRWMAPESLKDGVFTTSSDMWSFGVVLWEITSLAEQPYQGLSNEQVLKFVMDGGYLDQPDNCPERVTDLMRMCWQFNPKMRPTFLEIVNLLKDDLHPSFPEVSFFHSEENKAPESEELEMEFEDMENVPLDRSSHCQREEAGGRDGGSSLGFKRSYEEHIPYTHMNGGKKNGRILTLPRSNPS

ADRB2 = ADRB2 (Homo sapiens, UniProt P07550); test: Safetyscan47 GPCR cAMP, Antagonist; format: cell-based; settings: for Emax: read-out: Max Response
Sequence of ADRB2 (P07550 whole entry): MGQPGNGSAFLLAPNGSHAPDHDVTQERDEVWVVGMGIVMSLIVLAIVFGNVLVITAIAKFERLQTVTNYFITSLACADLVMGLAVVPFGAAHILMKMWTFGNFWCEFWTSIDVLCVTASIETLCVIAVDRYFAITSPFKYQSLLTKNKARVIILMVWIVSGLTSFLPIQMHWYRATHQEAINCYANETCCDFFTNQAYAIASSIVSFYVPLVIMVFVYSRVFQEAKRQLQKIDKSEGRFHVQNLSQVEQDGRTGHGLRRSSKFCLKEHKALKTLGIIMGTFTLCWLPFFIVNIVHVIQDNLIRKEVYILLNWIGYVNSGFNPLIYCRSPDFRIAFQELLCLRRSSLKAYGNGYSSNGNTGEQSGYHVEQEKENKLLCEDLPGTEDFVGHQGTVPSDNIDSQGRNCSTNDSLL

OPRM1 = OPRM1 (Homo sapiens, UniProt P35372); test: Safetyscan47 GPCR cAMP, Agonist; format: cell-based; settings: for Emax: OPRM1, read-out: Max Response
Sequence of OPRM1 (P35372 whole entry): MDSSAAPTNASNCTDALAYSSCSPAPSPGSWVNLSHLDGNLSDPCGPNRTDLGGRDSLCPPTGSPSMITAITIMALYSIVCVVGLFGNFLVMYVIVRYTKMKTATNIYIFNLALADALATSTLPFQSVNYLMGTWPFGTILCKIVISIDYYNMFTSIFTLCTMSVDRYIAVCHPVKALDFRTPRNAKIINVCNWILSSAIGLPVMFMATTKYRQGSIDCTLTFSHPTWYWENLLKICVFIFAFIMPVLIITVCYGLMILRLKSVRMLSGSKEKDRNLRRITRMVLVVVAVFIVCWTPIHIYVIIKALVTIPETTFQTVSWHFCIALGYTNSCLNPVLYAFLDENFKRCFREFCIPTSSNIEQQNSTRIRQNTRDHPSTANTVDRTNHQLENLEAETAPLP

[2] = Plasma protein binding, rapid equilibrium dialysis, mouse plasma; format: in vitro ADME; settings: for Plasma protein binding, %Recovery: mouse plasma, RED, 2 μM, 4 h, 37°C; for fraction unbound at 4 h, 2 μM: mouse, plasma, pH 7.4
HRH1 = HRH1 (Homo sapiens, UniProt P35367); test: Safetyscan47 GPCR Calcium Flux, Agonist; format: cell-based; settings: for Emax: read-out: Max Response
Sequence of HRH1 (P35367 whole entry): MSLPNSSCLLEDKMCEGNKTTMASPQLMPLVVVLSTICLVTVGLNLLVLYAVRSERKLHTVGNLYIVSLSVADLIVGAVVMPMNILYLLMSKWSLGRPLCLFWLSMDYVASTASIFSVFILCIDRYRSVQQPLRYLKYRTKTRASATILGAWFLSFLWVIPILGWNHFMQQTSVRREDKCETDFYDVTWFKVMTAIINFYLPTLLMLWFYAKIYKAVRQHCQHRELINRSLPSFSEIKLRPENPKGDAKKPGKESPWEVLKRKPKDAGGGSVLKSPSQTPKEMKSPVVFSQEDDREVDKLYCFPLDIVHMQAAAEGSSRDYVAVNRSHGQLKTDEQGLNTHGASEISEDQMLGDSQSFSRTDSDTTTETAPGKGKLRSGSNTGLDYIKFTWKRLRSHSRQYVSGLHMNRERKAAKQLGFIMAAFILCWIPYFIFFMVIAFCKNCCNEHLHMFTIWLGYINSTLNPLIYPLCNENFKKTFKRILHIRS

HTR3A = target: T2, HTR3A (Homo sapiens, UniProt P46098); test: Safetyscan47 Ion Channel, Opener; format: cell-based; settings: for Emax: read-out: Max Response
T2 sequence (P46098 24-478): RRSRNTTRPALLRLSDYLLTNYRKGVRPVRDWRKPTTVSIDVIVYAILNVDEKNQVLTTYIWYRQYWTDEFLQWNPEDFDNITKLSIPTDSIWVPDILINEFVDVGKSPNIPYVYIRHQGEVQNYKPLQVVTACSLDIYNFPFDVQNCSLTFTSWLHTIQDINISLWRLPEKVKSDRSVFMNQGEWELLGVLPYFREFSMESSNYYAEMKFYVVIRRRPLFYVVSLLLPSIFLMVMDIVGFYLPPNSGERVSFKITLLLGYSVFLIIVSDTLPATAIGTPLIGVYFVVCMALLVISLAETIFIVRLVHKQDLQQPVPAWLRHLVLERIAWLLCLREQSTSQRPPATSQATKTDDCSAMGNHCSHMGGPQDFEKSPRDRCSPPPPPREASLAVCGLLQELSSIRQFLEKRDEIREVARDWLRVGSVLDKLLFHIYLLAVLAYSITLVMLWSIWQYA

OPRD1 = OPRD1 (Homo sapiens, UniProt P41143); test: Safetyscan47 GPCR cAMP, Antagonist; format: cell-based; settings: for Emax: read-out: Max Response
Sequence of OPRD1 (P41143 whole entry): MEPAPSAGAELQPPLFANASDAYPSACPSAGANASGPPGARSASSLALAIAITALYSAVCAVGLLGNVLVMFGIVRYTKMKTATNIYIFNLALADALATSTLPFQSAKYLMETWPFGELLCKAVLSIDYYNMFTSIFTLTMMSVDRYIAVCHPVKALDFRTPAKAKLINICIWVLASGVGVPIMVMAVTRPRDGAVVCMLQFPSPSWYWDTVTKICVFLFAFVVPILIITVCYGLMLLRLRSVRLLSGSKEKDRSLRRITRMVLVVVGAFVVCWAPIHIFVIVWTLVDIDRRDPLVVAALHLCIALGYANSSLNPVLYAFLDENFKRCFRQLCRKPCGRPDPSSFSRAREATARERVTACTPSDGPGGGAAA

HTR2A = HTR2A (Homo sapiens, UniProt P28223); test: Safetyscan47 GPCR Calcium Flux, Agonist; format: cell-based; settings: for Emax: read-out: Max Response
Sequence of HTR2A (P28223 whole entry): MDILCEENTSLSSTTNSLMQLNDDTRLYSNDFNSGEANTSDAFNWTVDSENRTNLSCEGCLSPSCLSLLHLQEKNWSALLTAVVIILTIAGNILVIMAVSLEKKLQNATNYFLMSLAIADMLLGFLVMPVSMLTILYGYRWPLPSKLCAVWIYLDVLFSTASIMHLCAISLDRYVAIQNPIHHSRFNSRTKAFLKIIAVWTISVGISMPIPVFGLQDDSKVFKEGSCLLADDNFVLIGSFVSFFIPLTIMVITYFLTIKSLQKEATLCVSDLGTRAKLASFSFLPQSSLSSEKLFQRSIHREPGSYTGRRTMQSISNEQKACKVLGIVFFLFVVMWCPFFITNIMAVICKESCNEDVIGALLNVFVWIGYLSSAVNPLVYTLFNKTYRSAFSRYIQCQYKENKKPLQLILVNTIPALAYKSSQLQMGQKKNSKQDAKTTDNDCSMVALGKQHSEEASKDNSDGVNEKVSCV

SMILES	EC50 (AR) [µM]	Emax (AR) [%]	half-life at 2 μM [1] [h]	remaining at 1 h, 2 μM [1] [%]	remaining at 3 h, 2 μM [1] [%]	IC50 (CHRM3) [µM]	Emax (CHRM3) [%]	IC50 (INSR) [µM]	Emax (INSR) [%]	IC50 (ADRB2) [µM]	Emax (ADRB2) [%]	EC50 (OPRM1) [µM]	Emax (OPRM1) [%]	Plasma protein binding, %Recovery [2] [%]	fraction unbound at 4 h, 2 μM [2]	EC50 (HRH1) [µM]	Emax (HRH1) [%]	EC50 (HTR3A) [µM]	Emax (HTR3A) [%]	Emax (OPRD1) [%]	further results
CC[C@H](C)[C@H](NC(=O)[C@H](CC(C)C)NC(=O)[C@H](CC(=O)O)NC(=O)CNC(=O)[C@H](CCCNC(=N)N)NC(=O)[C@@H](NC(=O)[C@H](Cc1ccccc1)NC(=O)[C@H](Cc1ccc(O)cc1)NC(=O)[C@@H]1CCC(=O)NCC(=O)NCC(=O)N[C@@H](CCCNC(=N)N)C(=O)NCC(=O)N[C@@H](Cc2c[nH]cn2)C(=O)N[C@@H](C(C)C)C(=O)N2CCC[C@H]2C(=O)N1)C(C)C)C(=O)N[C@@H](CO)C(=O)N[C@@H](Cc1ccccc1)C(=O)N[C@@H](Cc1ccc(O)cc1)C(=O)N[C@@H](CCCCN)C(=O)O [lassotide 36] (GGRGHVPEYFVRGDLISFYK-OH; lactam N-8)	> 45	0	3.57	98.7	56.9	> 45	3.06	> 45	17.4	> 45	8.93	> 45	3.7	91	0.222	> 45	2.03	> 45	0	0	IC50 (OPRD1; RC50, Antagonist, Result Type IC50): > 45 µM; EC50 (HTR2A): > 45 µM; Emax (HTR2A): 1.7%
CC[C@H](C)[C@H](NC(=O)[C@H](CC(C)C)NC(=O)[C@H](CC(=O)O)NC(=O)CNC(=O)[C@H](CCCNC(=N)N)NC(=O)[C@@H](NC(=O)[C@H](Cc1ccccc1)NC(=O)[C@H](Cc1ccc(O)cc1)NC(=O)[C@@H]1CCC(=O)NCC(=O)NCC(=O)N[C@@H](CCCNC(=N)N)C(=O)NCC(=O)N[C@@H](Cc2c[nH]cn2)C(=O)N[C@@H](C(C)C)C(=O)N2CCC[C@H]2C(=O)N1)C(C)C)C(=O)N[C@@H](CO)C(=O)N[C@@H](Cc1ccccc1)C(=O)N[C@@H](Cc1ccc(O)cc1)C(=O)N[C@@H](CCCCNC(=O)CCOCCOCCNC(=O)CCCc1ccc(I)cc1)C(=O)O [lassotide 47] (GGRGHVPEYFVRGDLISFYK([PEG2-Butanoyl(4-(4-I-phenyl))])-OH; lactam N-8)	> 45	0	2.69	87.8	46.5	> 45	0.91	> 45	11.2	> 45	32.8	> 45	18.4	100	0.005	> 45	0	> 45	0.79	56.4	IC50 (OPRD1; RC50 (IC50), GPCR cAMP, Antagonist, OPRD1): 40.3 µM; EC50 (HTR2A): > 45 µM; Emax (HTR2A): 3.54%
